The source of these data is patent publication US20070092444A1, “Inhibition of inward sodium currents in cancer” (priority 2003, published 2007).

Test [1] concerns inward currents in D54-MG glioma cells. The test can be described thus: Whole-cell patch clamp, D54-MG glioma cells. In kind it is cell-based, human. Particulars: 100 μM amiloride. Here is the method: FIGS. 7A-7C show representative whole-cell patch clamp recordings.
The amiloride-sensitive inward Na^+ currents are measured regardless of whether ASIC2 is absent or present (FIGS. 7A-D). Whole-cell patch clamp recordings were obtained from U87-MG, SK-MG, and D54-MG glioma cells in the basal state. […] This inhibition of the inward current occurred regardless of the absence or presence of ASIC2 mRNA (FIG. 7D) (as detected by RT-PCR as described above).

For test [2], the target named is T1, ASIC1 (Homo sapiens, UniProt P78348).
T1 sequence (P78348 1-528): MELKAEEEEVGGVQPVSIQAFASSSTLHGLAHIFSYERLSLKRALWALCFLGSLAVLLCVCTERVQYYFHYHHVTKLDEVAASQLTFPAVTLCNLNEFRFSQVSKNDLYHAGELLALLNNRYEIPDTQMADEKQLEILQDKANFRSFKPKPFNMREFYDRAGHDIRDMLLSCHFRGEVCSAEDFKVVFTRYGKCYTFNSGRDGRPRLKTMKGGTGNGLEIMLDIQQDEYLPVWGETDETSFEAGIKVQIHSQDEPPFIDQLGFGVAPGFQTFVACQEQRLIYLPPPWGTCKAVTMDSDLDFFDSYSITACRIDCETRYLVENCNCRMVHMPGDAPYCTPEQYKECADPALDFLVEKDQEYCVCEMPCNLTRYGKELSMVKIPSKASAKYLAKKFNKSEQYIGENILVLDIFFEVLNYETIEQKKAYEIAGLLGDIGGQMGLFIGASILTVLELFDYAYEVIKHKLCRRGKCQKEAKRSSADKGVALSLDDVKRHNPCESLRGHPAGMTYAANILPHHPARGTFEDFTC
Put plainly: Acid-activated currents in voltage-clamped Xenopus oocytes expressing ASIC1. In kind it is cell-based. The settings on record: 400 μM amiloride; pHo 4.0; −60 mV.
Excerpt: FIGS. 8A-C show acid-activated ASIC currents in Xenopus oocytes. ASIC 2 (FIG. 8A), ASIC1 (FIG. 8B) and the combination of ASIC2 and ASIC1 (FIG. 8C) were examined. […] Each oocyte served as its own control.
(§1) Membrane potential was held at −60 mV, and the pHo was step decreased to 4.0 for 10 s, and then returned to 7.4 for 30 s before repeating the sequence.
Xenopus oocytes were used to express ASIC1 and ASIC2 mRNA individually and in combination. Oocyte preparation, cRNA injection, and two-electrode voltage clamp recordings were performed as described (33,67-69).
as §1

Test [3] deals with T1, ASIC1. The test can be described thus: Wild-type ASIC1 in planar lipid bilayers, single channel recording. The settings on record: amiloride; bilayers. In kind it is biochemical. Here is the method:
An expanded time scale is shown below each trace.
Wild-type ASIC1 incorporated into planar lipid bilayers at neutral pH or at acidic extracellular pH was also examined.
as §1
Control single channel were record for ASIC1 containing channels in bilayers bathed with symmetrical 100 mM NaCl, 10 mM MOPS, pH 6.2. Holding potential was +100 mV referred to the virtually grounded trans chamber. For illustration purposes, data shown were digitally filtered at 100 Hz using pCLAMP software (Axon Instruments) subsequent to acquisition of the analog signal filtered at 300 Hz with an 8-pole Bessel filter before acquisition at 1 ms per point. An expanded time scale is shown below each trace (FIG. 21).
Representative dwell-time histograms were constructed following the events analyses performed using pCLAMP software (Axon Instruments) on single channel recordings of 10 min in duration filtered at 300 Hz with an 8-pole Bessel filter before acquisition at 1 ms per point using pCLAMP software and hardware. The event detection thresholds were 50% in amplitude of transition between closed and open states, and 3 ms in duration. Closed and open time constants shown were determined by fitting the closed and open time histograms to the probability density function (Sigworth and Sine, 1987), and using the Simplex least square routine of pSTAT. Number of bins per decade in all histograms was 16.

For test [4], the system named is Na^+/H^+ exchange. Particulars: glial / glioma cells; references 72, 73; cited from earlier work.
Test [5] concerns D54-MG glioma cells. Put plainly: Transwell Migration Assay, D54-MG cells. The format is cell-based, human. Particulars: 3 h, vitronectin. On the procedure:
5-8 μm polycarbonate Transwell filters were coated on the lower surface with or vitronectin ([…] in PBS). […] of D54MG cells (400,000 cells/ml were added to the upper chamber), in the presence or absence of benzamil, and migration was allowed to proceed for 3 hours. Migration was determined according to standard procedures (120). N-amidino-3,5-diamino-pyrazinecarboxamide was used as a control.
To begin to investigate the role of the inward Na^+ conductance in the invasive behavior of tumor cells, a Transwell Migration Assay was used to assess cell chemotaxis and invasiveness (FIG. 17). D54-MG cells were plated on the upper side of a filter insert perforated with 5-8 μm holes, and induced to migrate through these pores toward the extracellular matrix protein vitronectin (coated on the underside of the filter). Benzamil, at 10, 20, 50, or 100 μM, was added to both chambers at time 0. After a 3 h migration time, cells were fixed, stained with crystal violet, and counted. BSA-coated filter inserts were used as negative controls. […]
Approximately 10,000 cells were added to the upper side of a filter insert perforated with 5-8 μm holes, and induced to migrate through these pores toward the extracellular matrix protein vitronectin (coated on the underside of the filter). […] Cells were counted on an inverted microscope, averaging five fields per Transwell chamber. […]

Test [6] relates to primary GBM cultures. The test can be described thus: Transwell Migration Assay, primary GBM cultures. In kind it is cell-based, human. Particulars: 3 h, vitronectin. On the procedure:
(§2) Approximately 10,000 cells were added to the upper side of a filter insert perforated with 5-8 μm holes, and induced to migrate through these pores toward the extracellular matrix protein vitronectin (coated on the underside of the filter). PcTX1 or control scrambled PcTX1 peptide was added to each compartment at the same time as the cells. BSA-coated filter inserts were used as negative controls. After 3 h, cells were fixed with 4% paraformaldehyde, and subsequently stained with crystal violet. Cells were counted on an inverted microscope, averaging five fields per Transwell chamber. Four-to-ten chambers were used under each condition.

Test [7] deals with primary human astrocytes. Put plainly: Transwell Migration Assay, primary human astrocytes. In kind it is cell-based. On the procedure:
as §2

Test [8] deals with U87-MG cells. The test can be described thus: Regulatory volume increase after osmotic shrinkage, Coulter counter. In kind it is cell-based, human. The settings on record: 80 nM PcTX1; 450 mOsM/kg. On the procedure: U87-MG cells were mechanically dispersed, washed, and resuspended in PBS. At t=2-3 min, the osmolality of the bathing medium was increased to 450 mOsM/kg by the addition of NaCl from a 3M stock solution.

Test [9] deals with U251-MG brain tumors. The test can be described thus: Intracranial U251-MG xenograft in SCID mice. The format is in vivo. On the procedure:
After sacrifice, brain tissue was removed, embedded with paraffin and sectioned (10 μm thick). Sections were stained using hemotoxylin and eosin. Magnifications are 1×, 4× and 20× as indicated.
In these studies, 10^6 U251-MG cells were injected directly into the right hemisphere of thirty SCID mice (FIGS. 27A-C). […] On sacrifice of the animals, the brain of each mouse was sectioned and stained with hemotoxylin and eosin. Do to the nature of the study, no difference in survival between the three groups was noted.

For the molecule `N=C(N)NC(=O)c1nc(Cl)c(N)nc1N` [amiloride], the “inhibition of inward currents” value in test [1] is “inhibited”. Also, in [2], the “inhibition of acid-activated currents” value is on record as “inhibited”. Besides, the “kind of channel block” value in test [3] is listed as “flickery-block”. Besides, the “inhibition of Na^+/H^+ exchange” value in test [4] was “can inhibit”.

For the molecule Psalmotoxin 1 [PcTX1], the “diminished ability to migrate through the filter” value in [5] and in [6] was more than 90% each time. Also, the “effect on Transwell migration” value in [7] was “no effect”. Further, the “volume recovery after shrinkage” value in test [8] is listed as “effectively prevented”. Further, in [9] (between the three groups), the survival entry was “no difference”. Besides, the “tumor foci within the injected hemisphere” value in test [9] (injection once a week for three weeks) is on record as “one”. Moreover, the tumor margins result in test [9] (injection once a week for three weeks, 20× the in vitro inhibitory dose, versus saline or scrambled peptide) is on record as “more clearly delineated”.
